Measured values published in PMC2801581 (Journal of medicinal chemistry, 2009).
Where two headings read alike, the source gives them in different places.

How the values were obtained:
CD45 [1] = biological target: T1, CD45 (Homo sapiens, UniProt P08575); assay: Intracellular CD45 inhibition in JTAg cells, anti-pLck; assay type: cell-based
T1 sequence (P08575 26-1306): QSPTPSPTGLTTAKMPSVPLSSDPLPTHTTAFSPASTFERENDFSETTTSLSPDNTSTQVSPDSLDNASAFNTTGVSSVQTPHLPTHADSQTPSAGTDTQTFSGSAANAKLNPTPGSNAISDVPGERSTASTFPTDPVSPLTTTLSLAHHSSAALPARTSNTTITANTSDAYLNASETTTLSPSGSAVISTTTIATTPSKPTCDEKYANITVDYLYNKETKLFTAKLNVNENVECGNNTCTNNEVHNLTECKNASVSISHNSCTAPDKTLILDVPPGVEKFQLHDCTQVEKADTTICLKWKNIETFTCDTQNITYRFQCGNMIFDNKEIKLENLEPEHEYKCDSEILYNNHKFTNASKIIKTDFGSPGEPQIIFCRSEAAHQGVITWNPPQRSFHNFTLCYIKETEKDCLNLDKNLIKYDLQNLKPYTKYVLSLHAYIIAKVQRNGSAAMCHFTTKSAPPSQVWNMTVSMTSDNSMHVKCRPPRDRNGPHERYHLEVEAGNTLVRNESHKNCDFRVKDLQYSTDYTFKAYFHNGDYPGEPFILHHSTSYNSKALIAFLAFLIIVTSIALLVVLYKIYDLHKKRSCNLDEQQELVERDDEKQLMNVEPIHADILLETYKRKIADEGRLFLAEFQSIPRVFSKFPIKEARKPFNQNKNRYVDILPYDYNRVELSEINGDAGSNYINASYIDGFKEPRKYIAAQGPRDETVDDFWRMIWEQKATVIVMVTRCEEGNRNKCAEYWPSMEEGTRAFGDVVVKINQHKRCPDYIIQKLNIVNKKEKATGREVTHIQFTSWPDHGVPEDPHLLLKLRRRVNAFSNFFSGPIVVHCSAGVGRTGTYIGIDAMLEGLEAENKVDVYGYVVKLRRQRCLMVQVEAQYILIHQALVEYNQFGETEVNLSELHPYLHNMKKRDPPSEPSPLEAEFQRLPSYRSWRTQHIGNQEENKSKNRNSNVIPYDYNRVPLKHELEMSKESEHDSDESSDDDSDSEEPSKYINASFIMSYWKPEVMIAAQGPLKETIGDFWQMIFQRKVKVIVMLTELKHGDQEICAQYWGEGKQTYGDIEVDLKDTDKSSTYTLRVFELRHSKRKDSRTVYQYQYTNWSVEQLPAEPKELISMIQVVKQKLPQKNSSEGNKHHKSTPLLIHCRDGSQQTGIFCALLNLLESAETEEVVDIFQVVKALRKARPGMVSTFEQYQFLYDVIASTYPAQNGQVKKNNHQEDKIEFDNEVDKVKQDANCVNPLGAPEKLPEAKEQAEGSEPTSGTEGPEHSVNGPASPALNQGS

CD45 [2] = test system: CD45
HePTP = biological target: T2, HePTP (Homo sapiens, UniProt P35236); assay: HePTP counterscreen; assay type: biochemical; details: read-out: IC50 HePTP (DiFMUP)
T2 sequence (P35236 65-360): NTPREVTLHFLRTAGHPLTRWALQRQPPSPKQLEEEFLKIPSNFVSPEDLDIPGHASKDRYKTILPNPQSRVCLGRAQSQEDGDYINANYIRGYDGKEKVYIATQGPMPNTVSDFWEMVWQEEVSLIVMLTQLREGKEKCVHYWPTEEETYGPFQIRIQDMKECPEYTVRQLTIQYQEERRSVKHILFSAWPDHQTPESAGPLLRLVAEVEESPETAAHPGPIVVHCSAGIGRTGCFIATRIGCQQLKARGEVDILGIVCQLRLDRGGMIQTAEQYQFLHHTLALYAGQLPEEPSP

LYP [3] = assay: Intracellular LYP inhibition in JTAg cells, anti-pLck; assay type: cell-based, human
PTP-PEST = biological target: T3, PTP-PEST (Homo sapiens, UniProt Q05209); assay: PTP-PEST inhibition assay with fluorogenic substrates; assay type: biochemical; details: pH 6.5
T3 sequence (Q05209 2-323): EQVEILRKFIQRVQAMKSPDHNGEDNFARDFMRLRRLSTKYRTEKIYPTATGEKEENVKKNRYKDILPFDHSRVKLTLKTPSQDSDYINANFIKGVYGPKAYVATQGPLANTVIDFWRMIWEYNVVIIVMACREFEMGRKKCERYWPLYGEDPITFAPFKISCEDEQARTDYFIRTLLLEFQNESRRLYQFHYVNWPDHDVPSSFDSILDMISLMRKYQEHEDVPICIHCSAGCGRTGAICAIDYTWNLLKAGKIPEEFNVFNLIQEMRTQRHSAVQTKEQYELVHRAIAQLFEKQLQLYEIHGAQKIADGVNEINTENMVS

CD45 [4] = biological target: T4, CD45 (Homo sapiens, UniProt P08575); assay: CD45 counterscreen; assay type: biochemical; details: read-out: IC50 CD45 (DiFMUP)
T4 sequence (P08575 653-912 limits assumed): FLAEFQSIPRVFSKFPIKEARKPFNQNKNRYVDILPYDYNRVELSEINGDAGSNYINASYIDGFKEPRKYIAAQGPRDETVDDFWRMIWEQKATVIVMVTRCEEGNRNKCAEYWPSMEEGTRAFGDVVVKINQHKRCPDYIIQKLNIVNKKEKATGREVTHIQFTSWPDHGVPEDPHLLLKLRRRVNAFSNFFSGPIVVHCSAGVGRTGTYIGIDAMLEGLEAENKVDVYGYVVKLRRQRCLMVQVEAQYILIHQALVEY

LYP [5] = test system: LYP
LYP [6] = biological target: T5, LYP (Homo sapiens, UniProt Q9Y2R2); assay: LYP inhibition assay with fluorogenic substrates; assay type: biochemical; details: for IC50: pH 6.5
T5 sequence (Q9Y2R2 2-309): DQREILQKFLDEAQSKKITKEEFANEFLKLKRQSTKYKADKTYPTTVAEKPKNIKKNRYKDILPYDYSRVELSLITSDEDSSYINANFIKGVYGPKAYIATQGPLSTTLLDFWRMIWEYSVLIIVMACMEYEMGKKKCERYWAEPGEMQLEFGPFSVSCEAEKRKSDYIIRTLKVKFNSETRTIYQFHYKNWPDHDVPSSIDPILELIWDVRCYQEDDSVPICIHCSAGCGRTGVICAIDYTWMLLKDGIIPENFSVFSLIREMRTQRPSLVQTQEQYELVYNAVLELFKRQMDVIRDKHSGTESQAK

## [Cl][Au][PH](c1ccccc1)(c1ccccc1)c1ccccn1 [Compound 17, Diphenyl-2-pyridylphosphine-Au(I)-Cl]
CD45 [1]
  phosphorylation of Lck at Y505 (CD45 activity in cells): no change in phosphorylation levels at position Y505
CD45 [2]
  CD45 activity in primary mouse thymocytes (pLck Tyr505): not CD45 activity
HePTP
  IC50: 35 ± 2 µM
LYP [3]
  phosphorylation of Lck at Y394 (LYP activity in cells): increase in phosphorylation at Y394
PTP-PEST; read-out: IC50 PEST (DiFMUP)
  IC50: 76 ± 3 µM
PTP-PEST; read-out: IC50 PEST (peptide 1)
  IC50: 43 ± 3 µM
CD45 [4]
  IC50: > 150 µM
LYP [5]
  LYP activity in primary mouse thymocytes (pLck Tyr394): appears to inhibit LYP activity
LYP [6]
  LYP versus PTP-PEST inhibition in comparative library screen: more potent inhibitors of LYP than PTP-PEST regardless of the substrate used
  selectivity for LYP over PTP-PEST in dose-response screens: selective for LYP over the ~ 70% identical PTP-PEST
LYP [6]; read-out: IC50 LYP (DiFMUP)
  IC50: 5 ± 0.2 µM
LYP [6]; read-out: IC50 LYP (peptide 1)
  IC50: 1.5 ± 0.3 µM
